Measured values from ChEMBL document CHEMBL1140148, “Structure-activity studies on a series of a 2-aminopyrimidine-containing histamine H4 receptor ligands” (J Med Chem, 2008).

What was measured:
Histamine H4 receptor [1] = target: T1, Histamine H4 receptor (Homo sapiens, UniProt Q9H3N8); conditions: HEK293
Histamine H4 receptor [2] = target: Histamine H4 receptor (Rattus norvegicus, UniProt Q91ZY1); test: Agonist activity at rat histamine H4 receptor expressed in HEK293 cells coexpressing Gqi5 protein assessed as calcium flux by FLIPR assay; type: functional, cell-based
Chain of Histamine H4 receptor (Rattus norvegicus, UniProt Q91ZY1) (Q91ZY1 whole entry): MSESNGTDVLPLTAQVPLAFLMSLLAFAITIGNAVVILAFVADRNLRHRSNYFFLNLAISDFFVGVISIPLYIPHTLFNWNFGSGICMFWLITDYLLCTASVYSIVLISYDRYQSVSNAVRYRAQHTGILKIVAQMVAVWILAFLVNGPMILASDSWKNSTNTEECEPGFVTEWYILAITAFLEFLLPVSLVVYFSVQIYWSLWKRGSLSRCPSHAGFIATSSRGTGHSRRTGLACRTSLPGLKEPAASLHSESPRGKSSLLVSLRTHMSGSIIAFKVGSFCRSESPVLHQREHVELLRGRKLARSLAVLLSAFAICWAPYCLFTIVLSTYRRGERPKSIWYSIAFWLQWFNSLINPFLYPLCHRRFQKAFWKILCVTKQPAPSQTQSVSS

[3] = target: Histamine H4 receptor (Rattus norvegicus) (UniProt Q91ZY1); test: Agonist activity at rat histamine H4 receptor expressed in HEK293 cells coexpressing Gqi5 protein assessed as calcium flux by FLIPR assay relative to histamine; type: functional, cell-based
Chain of Histamine H4 receptor (Rattus norvegicus) (Q91ZY1 whole entry): as above

Histamine H4 receptor [4] = target: T1, Histamine H4 receptor; test: Agonist activity at human histamine H4 receptor expressed in HEK293 cells coexpressing Gqi5 protein assessed as calcium flux by FLIPR assay relative to histamine; type: functional, cell-based
Histamine H4 receptor [5] = target: T1, Histamine H4 receptor; test: Agonist activity at human histamine H4 receptor expressed in HEK293 cells coexpressing Gqi5 protein assessed as calcium flux by FLIPR assay; type: functional, cell-based
[6] = target: Histamine H4 receptor (Rattus norvegicus) (UniProt Q91ZY1); conditions: HEK293

T1 sequence (Q9H3N8 whole entry): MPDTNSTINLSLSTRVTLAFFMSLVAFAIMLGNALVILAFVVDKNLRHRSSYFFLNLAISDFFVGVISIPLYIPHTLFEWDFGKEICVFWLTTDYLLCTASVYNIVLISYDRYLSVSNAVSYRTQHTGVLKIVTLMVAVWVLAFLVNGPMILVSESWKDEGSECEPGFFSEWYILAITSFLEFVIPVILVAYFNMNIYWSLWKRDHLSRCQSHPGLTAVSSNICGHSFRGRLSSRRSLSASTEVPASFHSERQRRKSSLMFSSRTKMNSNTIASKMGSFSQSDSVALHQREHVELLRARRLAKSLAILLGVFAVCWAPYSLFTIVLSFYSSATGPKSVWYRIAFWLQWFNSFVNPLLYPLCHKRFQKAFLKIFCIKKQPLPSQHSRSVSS

Structure (SMILES) | pKb (Histamine H4 receptor [1]) | EC50 (Histamine H4 receptor [2]) [nM] | Efficacy [3] [%] | Efficacy (Histamine H4 receptor [4]) [%] | EC50 (Histamine H4 receptor [5]) [nM] | pKb [6]
CN1CCN(c2cc(C(C)(C)C)ncn2)CC1 | 7.07 | 933 | 79 | – | – | –
CCN1CCN(c2cc(C(C)(C)C)nc(N)n2)CC1 | 7.86 | 245 | 55 | – | – | –
CN1CCN(c2cc(-c3cccnc3)nc(N)n2)CC1 | 7.3 | 209 | 70 | – | – | –
CN1CCN(c2cc(-c3cnn(C)c3)nc(N)n2)CC1 | 7.31 | 219 | 78 | – | – | –
Cc1c(-c2ccc(C#N)cc2)nc(N)nc1N1CCN(C)CC1 | 7.36 | 58.9 | 63 | – | – | –
CN1CCN(c2cc(-n3ccccc3=O)nc(N)n2)CC1 | – | 14100 | 33 | 27 | 3890 | –
CN1CCN(c2cc(Sc3ccccc3)nc(N)n2)CC1 | 5.99 | 8910 | 68 | – | – | –
CN1CCN(c2cc(N3CCCC3)nc(N)n2)CC1 | 8.41 | 69.2 | 79 | – | – | –
CN1CCN(c2cc(-c3ccc(-c4ccccc4)cc3)nc(N)n2)CC1 | 6.29 | – | – | – | – | 6.03
CN1CCN(c2nc(N)cc(C(C)(C)C)n2)CC1 | 5.82 | 7940 | 82 | – | – | –
CN1CCN(c2cc(N)nc(C(C)(C)C)n2)CC1 | 6.28 | 4680 | 50 | – | – | –
CN1CCN(c2cc(Nc3ccccc3)nc(N)n2)CC1 | 8.18 | 117 | 81 | – | – | –
CCN(CC)c1cc(N2CCN(C)CC2)nc(N)n1 | 7.55 | 355 | 90 | – | – | –
CN1CCN(c2cc(N(C)C)nc(N)n2)CC1 | 6.85 | 3020 | 59 | – | – | –
CN1CCN(c2cc(-c3cccc(I)c3)nc(N)n2)CC1 | 8.27 | 891 | 61 | – | – | –
CN1CCN(c2nc(N)ncc2-c2ccccc2)CC1 | 5.32 | 8320 | 72 | – | – | –
COc1cccc(-c2cc(N3CCN(C)CC3)nc(N)n2)c1 | 8.12 | 102 | 69 | – | – | –
CN1CCN(c2nc(N)nc(C(C)(C)C)n2)CC1 | 7.04 | 251 | 70 | – | – | –
CN1CCN(c2cc(N(C)c3ccccc3)nc(N)n2)CC1 | 6.96 | – | – | – | – | 6.1
CN(C)CCOc1cc(C(C)(C)C)nc(N)n1 | 7.02 | 302 | 67 | – | – | –
CN1CCN(c2cc(-c3ccc(I)cc3)nc(N)n2)CC1 | 7.83 | 275 | 58 | – | – | –
CN1CCN(c2cc(-c3cccc(Cl)c3)nc(N)n2)CC1 | 8.24 | 31.6 | 50 | – | – | –
CN1CCN(c2cc(-c3ccccc3)nc(N)n2)CC1 | 8.39 | 39.8 | – | – | – | –
COc1nc(N2CCN(C)CC2)cc(C(C)(C)C)n1 | – | 4680 | 90 | 43 | 1200 | –
COc1ccncc1-c1cc(N2CCN(C)CC2)nc(N)n1 | 7.39 | 234 | 76 | – | – | –
CN1CCN(c2cc(C34CC5CC(CC(C5)C3)C4)nc(N)n2)CC1 | 7.59 | 316 | 61 | – | – | –

Structure (SMILES) | pKb (Histamine H4 receptor [1]) | EC50 (Histamine H4 receptor [2]) [nM] | Efficacy [3] [%] | Efficacy (Histamine H4 receptor [4]) [%] | EC50 (Histamine H4 receptor [5]) [nM] | pKb [6]
CN1CCN(c2cc(-c3c[nH]cn3)nc(N)n2)CC1 | – | 389 | 77 | 41 | 16.2 | –
COc1ccccc1-c1cc(N2CCN(C)CC2)nc(N)n1 | 8.86 | 43.7 | 68 | – | – | –
COc1cc(N2CCN(C)CC2)nc(N)n1 | 5.53 | 10500 | 55 | – | – | –
CN1CCN(c2cc(C(C)(C)C)nc(Cl)n2)CC1 | – | 8710 | 75 | 42 | 4900 | –
CNc1nc(N2CCN(C)CC2)cc(C(C)(C)C)n1 | 6.08 | 5130 | 46 | – | – | –
CN1CCN(c2cc(O)nc(N)n2)CC1 | 4.44 | 1480 | 92 | – | – | –
CN1CCN(c2cc(N3CCCCC3)nc(N)n2)CC1 | 8.05 | 46.8 | 73 | – | – | –
CN1CCN(c2cc(I)nc(N)n2)CC1 | 6.33 | 2040 | 67 | – | – | –
Cc1ccc(-c2cc(N3CCN(C)CC3)nc(N)n2)cc1 | 8.06 | 56.2 | 81 | – | – | –
CN1CCN(c2cc(-n3ccnc3)nc(N)n2)CC1 | – | 7940 | 56 | 31 | 2510 | –
CNc1cc(N2CCN(C)CC2)nc(N)n1 | 8.28 | 490 | 93 | – | – | –
CN(C)CCN1CCN(c2cc(C(C)(C)C)nc(N)n2)CC1 | 6.44 | 2400 | 66 | – | – | –
CN1CCN(c2cc(Cl)nc(N)n2)CC1 | 4.75 | 17000 | 65 | – | – | –
CN(C)CCCN(C)c1cc(C(C)(C)C)nc(N)n1 | 5.13 | 9770 | 40 | – | – | –
Cc1cnc(N)nc1N1CCN(C)CC1 | 7.07 | 66.1 | 81 | – | – | –
CN1CCN(c2cc(C(C)(C)C)nc(N(C)C)n2)CC1 | – | 18200 | 88 | 100 | 11500 | –
COc1ncccc1-c1cc(N2CCN(C)CC2)nc(N)n1 | – | 93.3 | 72 | 32 | 26.9 | –
CN1CCN(c2cc(N3CCNC3=O)nc(N)n2)CC1 | 5.38 | 12300 | 27 | – | – | –
Cc1cc(N2CCN(C)CC2)nc(N)n1 | 7.2 | 363 | 77 | – | – | –
CN1CCN(c2cc(-c3ccc(Cl)cc3)nc(N)n2)CC1 | 8.32 | 37.2 | 74 | – | – | –
CN1CCN(c2cc(C(C)(C)C)nc(N)n2)CC1 | 8.35 | 67.6 | 64 | – | – | –
COc1c(-c2ccc(C#N)cc2)nc(N)nc1N1CCN(C)CC1 | 6.04 | 5130 | 51 | – | – | –
CN1CCN(c2cc(N3CCC(N(C)C)C3)nc(N)n2)CC1 (centres undefined) | 5.76 | 3630 | 62 | – | – | –
COc1cccc(OC)c1-c1cc(N2CCN(C)CC2)nc(N)n1 | 6.81 | 195 | 81 | – | – | –
CN(C)CCN(C)c1cc(C(C)(C)C)nc(N)n1 | 5.71 | 1120 | 55 | – | – | –
CN1CCN(c2cc(-c3cn(C)cn3)nc(N)n2)CC1 | 8.05 | 102 | 91 | – | – | –

Structure (SMILES) | pKb (Histamine H4 receptor [1]) | EC50 (Histamine H4 receptor [2]) [nM] | Efficacy [3] [%] | Efficacy (Histamine H4 receptor [4]) [%] | EC50 (Histamine H4 receptor [5]) [nM] | pKb [6]
Cc1cccc(-c2cc(N3CCN(C)CC3)nc(N)n2)c1 | 8.62 | 42.7 | 59 | – | – | –
CN1CCN(c2cc(-c3ccncc3)nc(N)n2)CC1 | 7.38 | 229 | 63 | – | – | –
CN1CCN(c2cc(N3CCN(C)CC3)nc(N)n2)CC1 | 6.84 | 1350 | 68 | – | – | –
Cc1ccccc1-c1cc(N2CCN(C)CC2)nc(N)n1 | 8.07 | 178 | 60 | – | – | –
CN1CCN(c2cc(C(C)(C)C)nc(O)n2)CC1 | 4.39 | 22900 | 35 | – | – | –
CN1CCC(c2cc(C(C)(C)C)nc(N)n2)CC1 | 5.87 | 3630 | 55 | – | – | –
COc1cnc(N)nc1N1CCN(C)CC1 | 6.9 | 631 | 65 | – | – | –
CC(C)(C)c1cc(N2CCNCC2)nc(-n2cccc2)n1 | 6.75 | 2290 | 84 | – | – | –
CN1CCN(c2cc(-c3ccc4ccccc4c3)nc(N)n2)CC1 | 7.02 | 174 | 41 | – | – | –
CN1CCN(c2cc(-c3cn[nH]c3)nc(N)n2)CC1 | 8.38 | 1820 | 53 | – | – | –
CN(C)CCNc1cc(C(C)(C)C)nc(N)n1 | 6.91 | 1780 | 39 | – | – | –
CN1CCN(c2cc(N)nc(-c3ccc(C#N)cc3)c2)CC1 | 6.86 | 1860 | 84 | – | – | –
CN1CCN(c2cc(N)nc(N)n2)CC1 | 6.37 | 219 | 71 | – | – | –
CN1CCN(c2cc(-c3cncnc3)nc(N)n2)CC1 | 5.84 | 7940 | 61 | – | – | –
CN1CCN(c2cc(-c3ccc(F)nc3F)nc(N)n2)CC1 | 8.27 | 15.5 | 82 | – | – | –
COc1ncc(-c2cc(N3CCN(C)CC3)nc(N)n2)cn1 | 5.91 | 3240 | 53 | – | – | –
CC1CCN(c2cc(C(C)(C)C)nc(N)n2)CC1 | 5.2 | 23400 | 64 | – | – | –
CN1CCN(c2cc(NCc3ccccc3)nc(N)n2)CC1 | – | 490 | – | 56 | 64.6 | –
CN1CCN(c2nc(N)ncc2N)CC1 | – | 42.7 | 88 | 38 | 33.9 | –
CN1CCN(c2cc(-c3cccc(C#N)c3)nc(N)n2)CC1 | 8.06 | 234 | 48 | – | – | –
COc1ccc(-c2cc(N3CCN(C)CC3)nc(N)n2)cc1 | 8.08 | 115 | 71 | – | – | –
CN1CCN(c2cc(-c3ccccc3C#N)nc(N)n2)CC1 | 6.75 | 1200 | 73 | – | – | –
CN1CCN(c2ccnc(N)n2)CC1 | – | 115 | 87 | 42 | 43.7 | –
CN1CCN(c2cc(N3CCOCC3)nc(N)n2)CC1 | 7.16 | 339 | 87 | – | – | –
